# pIC50: −log10 of the molar value. Where two headings read alike, the source gives them in different places.
# Key:
# 4T1 breast cancer cells = conditions: mouse, in vivo; cited from earlier work
# L1210 leukemia = conditions: cited from earlier work
# [1] = test system: squamous cell carcinomas (SCCs); type: in vivo; conditions: agent alone
# Experimental: The combination therapy of polyamine biosynthesis/uptake inhibition was tested against the K6/ODC transgenic mouse murine squamous cell carcinoma (SCC) model recently described.^98 The K6/ODC model was developed to assess whether ODC overexpression was a contributing cause, or an effect of malignant transformation. […] While most skin tumorigenesis models yielded benign squamous papillomas as the predominant tumor type, when the K6/ODC transgene was expressed on the FVB/N strain background, the majority of tumors that developed were aggressive squamous cell carcinomas. These SCCs appeared as early as 5 weeks after treatment and in high multiplicities (up to four tumors per mouse), making this a very efficient model for SCC induction. Using this model, we were thus able to conclude that over-expression of ODC is a sufficient condition for tumor promotion in mouse skin.^99
# We conducted an in vivo anti-tumor trial of DFMO combined with either the D-C16-acyl Lys-spm conjugate AMXT 1501 (FIG. 4) or the L-C16-alkyl AMXT 1569 analog (FIG. 5) in the K6/ODC SCC model.
# The concentration of AMXT 1501 was 14 μg/ml, or an average daily dose of ˜50-65 μg (equivalent to ˜3 mg/kg/d). […] It is expected that great improvements in the oral bioavailability of AMXT 1501 would result from insightful drug formulation.
# UVB-induced skin cancer = conditions: 1% in drinking water for 3 weeks before UVB; untreated control 38%; cited from earlier work
# [2] = test system: UV-induced tumor challenges; conditions: splenocytes from UV-irradiated treated mice; without treatment 20 of 24; cited from earlier work
# B16F1 cells = conditions: 0.5 to 2.0% oral; cited from earlier work
# iNOS protein translation [3] = conditions: read-out: IC50, iNOS protein translation; RAW 264.7 cells; cited from earlier work
# iNOS protein translation [4] = conditions: read-out: IC50, iNOS protein translation; peritoneal macrophages; cited from earlier work
# L1210 cells = conditions: i.p. 5 mg/kg for 9 days; cited from earlier work
structure (smiles),measurement,setting,value
"c1cc(CN2CCCNCCNCCCNCC2)ccc1CN1CCCNCCNCCCNCC1 [AMD3100, plerixafor]",growth of transplanted 4T1 cells,4T1 breast cancer cells,significantly reduced
"CCNCCCNCCCCCCCNCCCNCC [BEPH, N,N′-bis[3-(ethylamino)-propyl]-1-7-heptane diamine]",outcome of L1210 leukemia,L1210 leukemia; T-cell deficient nude mice,not curative
same,effect on tumor or spleen cell polyamine levels,L1210 leukemia; at the doses used,no effect
same,outcome of L1210 leukemia,L1210 leukemia; immunocompetent C57BL mice,cured
"NCCC[C@](N)(C(=O)O)C(F)F [DFMO, α-difluoromethylornithine]",anti-tumor response to single agent,[1],weak effect
same,occurrence of skin cancer,UVB-induced skin cancer,9%
same,recipient mice in which tumors grew,[2],2 of 24
same,macrophage mediated cytolysis of B16F1 cells,B16F1 cells,two-fold augmented
NCCCNCCCCNCCCN [spermine],pIC50,iNOS protein translation [3],5.04
same,pIC50,iNOS protein translation [4],5.05
NCCCNCCCCNC(=O)[C@H](O)NC(=O)C[C@@H](O)CCCCN=C(N)N [sperqualin],survival,L1210 cells,more than 60 days

# Reference: patent US20150050299A1, “METHODS FOR ENHANCING IMMUNE RESPONSE” (priority 2010, published 2015)
